Results published in publication PMC11397024, “Strategic Fluorination to Achieve a Potent, Selective, Metabolically Stable, and Orally Bioavailable Inhibitor of CSNK2” (Molecules, 2024).

How the values were obtained:
Assay in all cases: NanoBRET K192
Assay type in all cases: cell-based
Settings in all cases: HEK293
CDK5 + CDK5R1 = target: T1, CDK5 + CDK5R1 (Homo sapiens, UniProt Q00535)
T1 construct: purchased Promega (NanoBRET Target Engagement K192 Kinase Selectivity System)
Outline: (§1)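 HEK293 cells were transfected overnight with NanoLuc–kinase fusion vectors, then treated for 2 h at 37 °C with compound (added as 100 μM working solution) plus K10 tracer. BRET was read at 450/610 nm after substrate and extracellular inhibitor, and fractional occupancy was calculated against no-compound controls.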

SLK = target: T2, SLK (Homo sapiens, UniProt Q9H2G2)
T2 construct: purchased Promega (NanoBRET Target Engagement K192 Kinase Selectivity System)
Outline: as §1

STK10 = target: T3, STK10 (Homo sapiens, UniProt O94804)
T3 construct: purchased Promega (NanoBRET Target Engagement K192 Kinase Selectivity System)
Outline: as §1

STK38 = target: T4, STK38 (Homo sapiens, UniProt Q15208)
T4 construct: purchased Promega (NanoBRET Target Engagement K192 Kinase Selectivity System)
Outline: as §1

PLK4 = target: T5, PLK4 (Homo sapiens, UniProt O00444)
T5 construct: purchased Promega (NanoBRET Target Engagement K192 Kinase Selectivity System)
Outline: as §1

PHKG2 = target: T6, PHKG2 (Homo sapiens, UniProt P15735)
T6 construct: purchased Promega (NanoBRET Target Engagement K192 Kinase Selectivity System)
Outline: as §1

MAPK8 = target: T7, MAPK8 (Homo sapiens, UniProt P45983)
T7 construct: purchased Promega (NanoBRET Target Engagement K192 Kinase Selectivity System)
Outline: as §1

SRMS = target: T8, SRMS (Homo sapiens, UniProt Q9H3Y6)
T8 construct: purchased Promega (NanoBRET Target Engagement K192 Kinase Selectivity System)
Outline: as §1

FES = target: T9, FES (Homo sapiens, UniProt P07332)
T9 construct: purchased Promega (NanoBRET Target Engagement K192 Kinase Selectivity System)
Outline: as §1

BMX = target: T10, BMX (Homo sapiens, UniProt P51813)
T10 construct: purchased Promega (NanoBRET Target Engagement K192 Kinase Selectivity System)
Outline: as §1

NEK4 = target: T11, NEK4 (Homo sapiens, UniProt P51957)
T11 construct: purchased Promega (NanoBRET Target Engagement K192 Kinase Selectivity System)
Outline: as §1

PLK3 = target: T12, PLK3 (Homo sapiens, UniProt Q9H4B4)
T12 construct: purchased Promega (NanoBRET Target Engagement K192 Kinase Selectivity System)
Outline: as §1

BTK = target: T13, BTK (Homo sapiens, UniProt Q06187)
T13 construct: purchased Promega (NanoBRET Target Engagement K192 Kinase Selectivity System)
Outline: as §1

ITK = target: T14, ITK (Homo sapiens, UniProt Q08881)
T14 construct: purchased Promega (NanoBRET Target Engagement K192 Kinase Selectivity System)
Outline: as §1

CSNK1A1L = target: T15, CSNK1A1L (Homo sapiens, UniProt Q8N752)
T15 construct: purchased Promega (NanoBRET Target Engagement K192 Kinase Selectivity System)
Outline: as §1

MAP3K10 = target: T16, MAP3K10 (Homo sapiens, UniProt Q02779)
T16 construct: host or cells: HEK293
Outline: as §1

MAPK9 = target: T17, MAPK9 (Homo sapiens, UniProt P45984)
T17 construct: purchased Promega (NanoBRET Target Engagement K192 Kinase Selectivity System)
Outline: as §1

MAP4K5 = target: T18, MAP4K5 (Homo sapiens, UniProt Q9Y4K4)
T18 construct: purchased Promega (NanoBRET Target Engagement K192 Kinase Selectivity System)
Outline: as §1

CDK1 + B1 = target: T19, CDK1 + B1 (Homo sapiens, UniProt P06493)
T19 construct: purchased Promega (NanoBRET Target Engagement K192 Kinase Selectivity System)
Outline: as §1

STK4 = target: T20, STK4 (Homo sapiens, UniProt Q13043)
T20 construct: purchased Promega (NanoBRET Target Engagement K192 Kinase Selectivity System)
Outline: as §1

CDK3 + E1 = target: T21, CDK3 + E1 (Homo sapiens, UniProt Q00526)
T21 construct: purchased Promega (NanoBRET Target Engagement K192 Kinase Selectivity System)
Outline: as §1

MLTK = target: T22, MLTK (Homo sapiens, UniProt Q9NYL2)
T22 construct: purchased Promega (NanoBRET Target Engagement K192 Kinase Selectivity System)
Outline: as §1

NUAK1 = target: T23, NUAK1 (Homo sapiens, UniProt O60285)
T23 construct: purchased Promega (NanoBRET Target Engagement K192 Kinase Selectivity System)
Outline: as §1

MAP3K9 = target: T24, MAP3K9 (Homo sapiens, UniProt P80192)
T24 construct: purchased Promega (NanoBRET Target Engagement K192 Kinase Selectivity System)
Outline: as §1

AURKB = target: T25, AURKB (Homo sapiens, UniProt Q96GD4)
T25 construct: purchased Promega (NanoBRET Target Engagement K192 Kinase Selectivity System)
Outline: as §1

MKNK2 = target: T26, MKNK2 (Homo sapiens, UniProt Q9HBH9)
T26 construct: purchased Promega (NanoBRET Target Engagement K192 Kinase Selectivity System)
Outline: as §1

CSNK1G2 = target: T27, CSNK1G2 (Homo sapiens, UniProt P78368)
T27 construct: purchased Promega (NanoBRET Target Engagement K192 Kinase Selectivity System)
Outline: as §1

RET = target: T28, RET (Homo sapiens, UniProt P07949)
T28 construct: purchased Promega (NanoBRET Target Engagement K192 Kinase Selectivity System)
Outline: as §1

T17 sequence (P45984 whole entry): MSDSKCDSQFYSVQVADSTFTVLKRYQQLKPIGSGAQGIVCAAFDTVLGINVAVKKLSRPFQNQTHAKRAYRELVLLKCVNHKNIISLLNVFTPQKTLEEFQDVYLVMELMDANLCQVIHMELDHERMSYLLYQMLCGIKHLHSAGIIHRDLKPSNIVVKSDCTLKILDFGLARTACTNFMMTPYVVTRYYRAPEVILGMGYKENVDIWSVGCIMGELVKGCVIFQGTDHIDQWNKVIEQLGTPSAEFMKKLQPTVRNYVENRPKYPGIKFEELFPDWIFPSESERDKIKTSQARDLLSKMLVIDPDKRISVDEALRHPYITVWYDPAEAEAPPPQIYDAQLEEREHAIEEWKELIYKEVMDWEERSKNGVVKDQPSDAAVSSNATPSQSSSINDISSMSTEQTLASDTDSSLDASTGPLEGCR
T20 sequence (Q13043 whole entry): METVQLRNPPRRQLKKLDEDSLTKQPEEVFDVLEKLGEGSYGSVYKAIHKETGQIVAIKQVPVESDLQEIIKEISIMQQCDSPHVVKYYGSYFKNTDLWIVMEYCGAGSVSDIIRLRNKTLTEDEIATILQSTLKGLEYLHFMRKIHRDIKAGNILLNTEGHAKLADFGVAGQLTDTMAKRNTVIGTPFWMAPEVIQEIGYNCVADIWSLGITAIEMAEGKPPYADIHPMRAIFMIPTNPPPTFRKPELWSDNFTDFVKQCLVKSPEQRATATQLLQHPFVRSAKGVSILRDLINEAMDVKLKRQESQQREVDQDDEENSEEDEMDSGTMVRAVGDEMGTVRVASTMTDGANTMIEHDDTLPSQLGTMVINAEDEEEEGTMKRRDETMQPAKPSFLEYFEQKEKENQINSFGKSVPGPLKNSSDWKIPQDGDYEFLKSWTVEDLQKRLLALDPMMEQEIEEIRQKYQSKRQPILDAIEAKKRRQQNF
T7 sequence (P45983 whole entry): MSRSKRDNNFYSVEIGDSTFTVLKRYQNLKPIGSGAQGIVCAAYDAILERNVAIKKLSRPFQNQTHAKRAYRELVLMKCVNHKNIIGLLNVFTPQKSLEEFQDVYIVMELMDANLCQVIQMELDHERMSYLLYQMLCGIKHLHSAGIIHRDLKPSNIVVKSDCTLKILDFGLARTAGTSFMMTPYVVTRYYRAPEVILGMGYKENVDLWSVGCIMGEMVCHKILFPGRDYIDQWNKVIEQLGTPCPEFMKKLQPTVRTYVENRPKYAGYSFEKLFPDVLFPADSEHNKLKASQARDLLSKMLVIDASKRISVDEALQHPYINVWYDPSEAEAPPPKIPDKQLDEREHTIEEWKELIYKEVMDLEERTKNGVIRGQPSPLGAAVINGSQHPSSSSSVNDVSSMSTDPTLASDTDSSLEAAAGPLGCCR
T3 sequence (O94804 whole entry): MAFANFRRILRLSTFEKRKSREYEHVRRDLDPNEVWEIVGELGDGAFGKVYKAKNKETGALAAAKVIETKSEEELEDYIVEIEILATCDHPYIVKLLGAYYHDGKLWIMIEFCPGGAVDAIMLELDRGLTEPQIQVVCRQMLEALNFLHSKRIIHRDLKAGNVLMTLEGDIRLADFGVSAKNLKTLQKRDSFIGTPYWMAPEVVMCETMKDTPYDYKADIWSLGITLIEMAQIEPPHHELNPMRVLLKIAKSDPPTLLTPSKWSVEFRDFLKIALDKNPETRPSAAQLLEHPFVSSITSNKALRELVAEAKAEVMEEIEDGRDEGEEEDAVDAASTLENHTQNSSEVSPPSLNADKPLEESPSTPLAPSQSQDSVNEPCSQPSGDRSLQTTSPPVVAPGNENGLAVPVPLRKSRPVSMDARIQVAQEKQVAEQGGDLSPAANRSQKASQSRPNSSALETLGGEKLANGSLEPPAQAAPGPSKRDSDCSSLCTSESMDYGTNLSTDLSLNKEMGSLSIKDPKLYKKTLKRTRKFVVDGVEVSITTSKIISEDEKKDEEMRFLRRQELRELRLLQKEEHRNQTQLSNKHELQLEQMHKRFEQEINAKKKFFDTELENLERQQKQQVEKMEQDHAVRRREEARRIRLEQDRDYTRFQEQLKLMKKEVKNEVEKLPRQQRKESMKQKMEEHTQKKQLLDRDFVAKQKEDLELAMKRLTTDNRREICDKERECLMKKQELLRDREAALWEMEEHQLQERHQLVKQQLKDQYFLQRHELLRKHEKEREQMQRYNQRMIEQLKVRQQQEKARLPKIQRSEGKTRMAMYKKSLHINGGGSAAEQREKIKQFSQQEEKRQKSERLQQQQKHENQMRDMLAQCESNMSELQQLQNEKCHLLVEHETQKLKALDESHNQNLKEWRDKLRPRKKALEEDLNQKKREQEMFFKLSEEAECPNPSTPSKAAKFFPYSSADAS
T24 sequence (P80192 whole entry): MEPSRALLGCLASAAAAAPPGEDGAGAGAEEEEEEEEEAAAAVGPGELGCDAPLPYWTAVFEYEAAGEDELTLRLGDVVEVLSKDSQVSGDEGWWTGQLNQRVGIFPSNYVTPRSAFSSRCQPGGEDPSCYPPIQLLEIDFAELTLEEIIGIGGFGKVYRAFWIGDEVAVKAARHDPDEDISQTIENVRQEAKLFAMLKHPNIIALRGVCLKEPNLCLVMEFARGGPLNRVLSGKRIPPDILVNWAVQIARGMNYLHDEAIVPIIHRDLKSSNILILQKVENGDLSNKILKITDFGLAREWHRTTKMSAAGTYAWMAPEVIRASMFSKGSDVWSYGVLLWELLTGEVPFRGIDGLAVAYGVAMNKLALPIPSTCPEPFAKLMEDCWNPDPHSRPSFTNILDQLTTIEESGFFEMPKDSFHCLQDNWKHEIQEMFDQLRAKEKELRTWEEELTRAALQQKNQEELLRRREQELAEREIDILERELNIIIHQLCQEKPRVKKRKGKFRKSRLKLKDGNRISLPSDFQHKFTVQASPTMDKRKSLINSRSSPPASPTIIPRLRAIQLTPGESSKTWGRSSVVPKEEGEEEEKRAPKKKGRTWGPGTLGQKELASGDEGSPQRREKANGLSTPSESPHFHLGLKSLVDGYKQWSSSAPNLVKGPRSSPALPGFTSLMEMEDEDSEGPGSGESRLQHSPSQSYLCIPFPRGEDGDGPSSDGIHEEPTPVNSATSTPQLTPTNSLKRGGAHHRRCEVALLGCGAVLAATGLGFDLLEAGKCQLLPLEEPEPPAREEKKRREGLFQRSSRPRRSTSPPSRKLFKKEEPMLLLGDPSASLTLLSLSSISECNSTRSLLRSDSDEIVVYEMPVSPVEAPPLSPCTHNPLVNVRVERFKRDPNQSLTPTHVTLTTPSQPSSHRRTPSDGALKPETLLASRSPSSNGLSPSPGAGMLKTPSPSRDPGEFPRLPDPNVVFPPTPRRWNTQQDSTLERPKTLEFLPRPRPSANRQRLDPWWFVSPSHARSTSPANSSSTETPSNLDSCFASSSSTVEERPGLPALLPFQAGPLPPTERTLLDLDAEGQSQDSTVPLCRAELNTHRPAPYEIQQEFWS
T18 sequence (Q9Y4K4 whole entry): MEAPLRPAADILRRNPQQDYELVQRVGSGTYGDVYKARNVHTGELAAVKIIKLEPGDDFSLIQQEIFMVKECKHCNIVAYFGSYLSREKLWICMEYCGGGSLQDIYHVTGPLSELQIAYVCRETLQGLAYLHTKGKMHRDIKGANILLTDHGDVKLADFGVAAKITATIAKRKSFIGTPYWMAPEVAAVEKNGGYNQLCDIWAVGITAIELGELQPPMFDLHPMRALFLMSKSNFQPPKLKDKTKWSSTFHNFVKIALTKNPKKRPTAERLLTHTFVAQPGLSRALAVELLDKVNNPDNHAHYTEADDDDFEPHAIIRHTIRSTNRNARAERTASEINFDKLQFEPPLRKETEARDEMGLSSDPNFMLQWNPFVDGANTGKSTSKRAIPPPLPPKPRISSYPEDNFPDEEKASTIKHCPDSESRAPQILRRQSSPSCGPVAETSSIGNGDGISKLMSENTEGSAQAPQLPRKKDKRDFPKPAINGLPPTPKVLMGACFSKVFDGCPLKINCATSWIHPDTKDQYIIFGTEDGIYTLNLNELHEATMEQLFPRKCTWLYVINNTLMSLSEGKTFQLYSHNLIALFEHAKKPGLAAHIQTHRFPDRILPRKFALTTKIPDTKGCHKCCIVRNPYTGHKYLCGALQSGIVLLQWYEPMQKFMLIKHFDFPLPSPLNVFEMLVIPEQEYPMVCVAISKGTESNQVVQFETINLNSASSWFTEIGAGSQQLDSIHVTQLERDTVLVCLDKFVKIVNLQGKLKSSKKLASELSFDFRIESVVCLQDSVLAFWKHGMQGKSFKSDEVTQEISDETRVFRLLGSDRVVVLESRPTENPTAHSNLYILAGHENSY
T10 sequence (P51813 whole entry): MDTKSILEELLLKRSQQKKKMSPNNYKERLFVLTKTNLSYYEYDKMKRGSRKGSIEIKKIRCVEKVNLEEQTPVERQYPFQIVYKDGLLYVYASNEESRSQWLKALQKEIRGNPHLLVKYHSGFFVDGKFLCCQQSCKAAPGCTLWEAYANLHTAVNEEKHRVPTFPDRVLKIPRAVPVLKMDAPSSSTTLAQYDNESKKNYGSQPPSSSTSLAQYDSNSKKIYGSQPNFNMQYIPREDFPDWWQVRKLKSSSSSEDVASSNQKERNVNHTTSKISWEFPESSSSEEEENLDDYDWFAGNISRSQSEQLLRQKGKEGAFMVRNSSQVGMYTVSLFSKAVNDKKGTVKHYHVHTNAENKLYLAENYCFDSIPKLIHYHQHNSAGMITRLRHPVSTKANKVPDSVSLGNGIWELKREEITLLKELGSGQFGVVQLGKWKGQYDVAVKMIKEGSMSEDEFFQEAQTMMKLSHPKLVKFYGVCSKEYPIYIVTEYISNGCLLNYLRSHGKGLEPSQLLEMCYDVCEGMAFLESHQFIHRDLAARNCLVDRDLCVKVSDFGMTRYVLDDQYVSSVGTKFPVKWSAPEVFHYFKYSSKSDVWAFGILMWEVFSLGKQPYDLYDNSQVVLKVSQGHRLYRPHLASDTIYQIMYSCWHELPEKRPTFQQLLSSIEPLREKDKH

CCC(=O)Nc1cc(Nc2cc(NC3CC3)n3ncc(C#N)c3n2)c(F)cc1N1CCC[C@H](NC)C1 [Compound 2, (S)-N-(5-((3-cyano-7-(cyclopropylamino)pyrazolo[1,5-a]pyrimidin-5-yl)amino)-4-fluoro-2-(3-(methylamino)piperidin-1-yl)phenyl)propionamide]
receptor occupancy at 10 µM (CDK5 + CDK5R1): 10.8% | receptor occupancy at 10 µM (SLK): 6.6% | receptor occupancy at 10 µM (STK10): 14.4% | receptor occupancy at 10 µM (STK38): -0.8% | receptor occupancy at 10 µM (PLK4): 3.8% | receptor occupancy at 10 µM (PHKG2): 29.7% | receptor occupancy at 10 µM (MAPK8): 0.6% | receptor occupancy at 10 µM (SRMS): 7.4% | receptor occupancy at 10 µM (FES): 11.7% | receptor occupancy at 10 µM (BMX): 0.6% | receptor occupancy at 10 µM (NEK4): 7.8% | receptor occupancy at 10 µM (PLK3): 15.5% | receptor occupancy at 10 µM (BTK): 3% | receptor occupancy at 10 µM (ITK): 11.9% | receptor occupancy at 10 µM (CSNK1A1L): 1.5% | receptor occupancy at 10 µM (MAP3K10): -2.4% | receptor occupancy at 10 µM (MAPK9): 2.4% | receptor occupancy at 10 µM (MAP4K5): 8.5% | receptor occupancy at 10 µM (CDK1 + B1): 6.2% | receptor occupancy at 10 µM (STK4): 6.9% | receptor occupancy at 10 µM (CDK3 + E1): 12.1% | receptor occupancy at 10 µM (MLTK): 1.1% | receptor occupancy at 10 µM (NUAK1): -1.7% | receptor occupancy at 10 µM (MAP3K9): 4.3% | receptor occupancy at 10 µM (AURKB): 1.4% | receptor occupancy at 10 µM (MKNK2): 23.6% | receptor occupancy at 10 µM (CSNK1G2): 21.8% | receptor occupancy at 10 µM (RET): 1.8%
